Assay results published in patent US20240050402A1, “ANETHOLE TRITHIONE ADMINISTRATION REGIMEN FOR THE PREVENTION OR TREATMENT OF ISCHEMIA-REPERFUSION INJURIES” (priority 2020, published 2024).
Like-named read-outs stand apart in the source and are kept apart here.

Tests used:
[1] = test system: myocardial ischemia-reperfusion, left coronary artery occlusion; test: In vivo ischemia-reperfusion model in rat (30 min left coronary artery occlusion, 3 h reperfusion); settings: for reduction of the size of the myocardial infarction / reduction of the size of the no-reflow zone: versus control; for Area of necrosis/Area at risk (%) / Area of no-reflow/Area at risk (%): mean±SEM
Method: 64 female Sprague Dawley rats (— 6 months old) were anesthetized with intraperitoneal ketamine (90 mg/kg) and xylazine (10 mg/kg). Only female rats were used in this study as it was previously reported that gender had no effect on the extent of myocardial injury in the setting of experimental myocardial infarction in rats (Li & Kloner, 1995. J Thromb Thrombolysis. 2(3):221-225); and that lethal reperfusion-induced arrhythmias led to a higher mortality in male rats versus female rats (Dow et al., 2015. Springerplus. 4:96).
The animals were intubated and mechanically ventilated with room air at respiratory rate of 60 cycles/minute and tidal volume of 1 mL per 100 g body weight (Harvard Apparatus Rodent Ventilator, Model 683, South Natick, Mass). A water circulating heating pad was used to keep the rat body temperature at around 37° C. Their neck surgical area was shaved and cleaned, and catheters were inserted into the jugular vein (for drug delivery) and carotid artery (for arterial waveform monitoring) via cut downs. Under clean conditions, the chest cavity was opened through an incision in the left 4th intercostal space to expose the heart. The pericardium was gently removed to expose the anterior surface of the left ventricle. A 4-0 silk suture was placed under the proximal portion of the left coronary artery as it runs through the interventricular groove just under the tip of the left atrial appendage. The end of the suture was threaded through a small plastic tube to make a snare for coronary artery occlusion. At the time of occlusion, the artery was pulled through the plastic tube and the tube was clamped. Coronary artery reperfusion occurred by releasing the clamp and watching the surface of the heart for reactive hyperemia. The left coronary artery was occluded for 30 minutes followed by 3 hours of reperfusion.
Rats were randomized into one of the 3 groups: • preventive group (n=22): AOL infusion starting 5 minutes before coronary artery occlusion; • curative group (n=20): AOL infusion starting 5 minutes prior to reperfusion; • control group (n=22): vehicle infusion starting 5 minutes before coronary artery occlusion.
The investigators were blinded to the animal randomization. Infusions in all groups were continuous throughout the end of the study (h+3 after reperfusion). In treated rats, the dose of AOL was 0.2 mg/kg/hour delivered in saline at a rate of infusion of 2 mL/kg/hour.
By the end of the 3-hour reperfusion, a solution of thioflavin S was injected into the jugular vein during the last one minute of reperfusion to assess the distribution of the no-reflow phenomenon (also known as “zone of microvascular obstruction”). Thioflavin S is a dye that appears fluorescent in areas receiving perfusion, when heart slices are visualized under UV light; while the no-reflow area, that lacks perfusion, appears dark (non-fluorescent). At the end of the period of reperfusion after thioflavin S injection, the proximal coronary artery was briefly re-occluded and blue dye (Super imperse blue) was injected into the jugular vein.
At the end of this step, the animal was euthanized under deep anesthesia with ketamine/xylazine by intravascular injection of KCl (149 mg/mL) at 0.5 mL/250 g body weight in order to stop the heart in a relative diastolic or relaxed state. The heart was excised and was gently washed in clear saline, and then transected into 4 transverse slices from apex to base.
The heart slices were photographed under white light in order to delineate the ischemic risk zone (pink) versus the non-ischemic regions (blue) that received the blue dye. The heart slices were then photographed under UV light in order to delineate the areas of perfusion by thioflavin S (fluorescent areas) versus the no-reflow zones (non-fluorescent).
Finally, hearts were incubated in 1% of triphenyl tetrazolium chloride (TTC), a chemical that stains viable cells brick red, while dead or necrotic cells appear white. […]

[2] = test system: myocardial ischemic-reperfusion, LAD coronary artery occlusion; test: In vivo ischemia-reperfusion model in sheep (balloon catheter LAD occlusion); settings: ST-segment elevation, troponin Ic, CPK, infarct size, ejection fraction; level when occluding balloon deflated
Method: (§1) Here, we investigated the effect of AOL in an in vivo ischemic-reperfusion model in sheep, by administering AOL prior to reperfusion to assess the cardioprotective potential of AOL. Several parameters were evaluated: • the infarct size, determined at the end of the experiment (day 3), and assessed by two independent pathologists; • the plasmatic exposure, evaluated by dosing plasma samples collected at regular intervals after administration of AOL by mass spectrometry; • ECG parameters; and • heart contractility, assessed through the measurement of the ejection fraction.
The efficacy of AOL was evaluated by comparing these parameters in vehicle- and AOL-treated groups using the sheep model.
Sheep underwent a myocardial ischemic-reperfusion, while either receiving AOL or the vehicle as a control. The animals underwent a three-day follow-up period and were euthanized on day 3.
Myocardial ischemic followed by reperfusion was induced by using the balloon catheter procedure, which consists in occluding the distal left anterior descending (LAD) coronary artery by inflating/deflating a balloon. This particular procedure allowed to have infarction sizes highly reproducible and to occlude only temporally the coronary artery.
AOL or vehicle were administered as a bolus intravenous (IV) injection 10 minutes prior to reperfusion. […]

[3] = Clinical pharmacokinetics study in healthy volunteers, IV bolus + 1-step infusion; assay type: in vivo, human; settings: for Cmax / concentration at 12 hours: both sexes, human, plasma; for Cmax: intravenous, read-out: AOL plasma concentration Cmax; for concentration at 12 hours: iv, read-out: AOL plasma concentration End of 12-hour infusion (IV)
Method: The concentration of AOL in the subject's plasma can be measured by means and methods well known to the skilled artisan, such as liquid chromatography-mass spectrometry (LC/MS) or any other suitable means or method. For example, a blood sample from the subject can be centrifuged—preferably within 30 minutes after blood sampling—at about 1 500 g for 10 minutes at 2-8° C. to obtain plasma—the skilled artisan is familiar with method of obtaining plasma from a blood sample, and can readily adapt the centrifugal force, time, temperature and any other parameter according to their routine practice. Immediately after centrifugation, the plasma sample can be analyzed to assess the concentration of AOL by liquid chromatography-mass spectrometry (LC/MS).
A single site, randomized, placebo-controlled, open-label and single blind, ascending dose, cross-over study primarily aiming at evaluating the pharmacokinetics, safety and tolerability of AOL administered intravenously in healthy volunteers versus a marketed formulation of AOL (Sulfarlem 525 ®) administered orally was carried out at QPS Netherlands B.V. (Groningen, The Netherlands). Twelve healthy male and female subjects aged between 18 and 65 years old were included in this study.
During this clinical pharmacokinetics study, several dosage regimens have been tested to assess the safety of AOL and to better characterized its pharmacokinetics profile, when administered by IV route (Table 2).

[4] = Two-step infusion after bolus, AOL plasma concentration in human; assay type: in vivo; settings: 2-step infusion 6 then 3 μg/kg/h (3 h + 9 h), lower and higher bolus doses
Method: In that respect, the management of the immediate post-initiation period has been evaluated using a 2-step infusion approach, i.e., starting with a higher dose (6 jig/kg/h) in the first 3 hours of infusion, and then stepping down to a lower dose (3 jig/kg/h) for the remaining time (in this example, 9 hours, for a total infusion period of 12 hours).
The same 2-step infusion regimen was tested with 2 different bolus doses.

[5] = Plasma exposure of AOL metabolite in sheep after bolus/infusion; assay type: in vivo; settings: limit of quantification
Method: as §1
AOL or vehicle were administered as a bolus intravenous (IV) injection 10 minutes prior to reperfusion. This bolus injection was expected to ensure an effective AOL plasma exposure on reperfusion and was immediately followed by a continuous IV infusion starting at the beginning of the reperfusion, for a total duration of administration (bolus+infusion) of 130 minutes.
This starkly contrasted with the metabolization profile that we had observed in sheep (Example 2), where AOX remained below the limit of quantification (0.5 ng/mL) after bolus/infusion, despite similar or even higher doses (FIGS. 9B & 9C).

[6] = curative (shortly before reperfusion)
[7] = curative group: AOL 0.2 mg/kg/hour infusion starting 5 minutes prior to reperfusion
[8] = preventive (prior to coronary artery occlusion)
[9] = preventive group: AOL 0.2 mg/kg/hour infusion starting 5 minutes before coronary artery occlusion
[10] = bolus 0.3 μg/kg, infusion 0.4 μg/kg/hr for 12 hours
[11] = bolus 0.9 μg/kg, infusion 1.7 μg/kg/hr for 12 hours
[12] = bolus 1.8 μg/kg, infusion 3 μg/kg/hr for 12 hours
[13] = bolus 4 μg/kg, infusion 6 μg/kg/hr for 12 hours

COc1ccc(-c2cc(=S)ss2)cc1 [AOL, 5-(4-methoxyphenyl)dithiole-3-thione]
effect on hemodynamics (heart rate, arterial blood pressure) ([1]; baseline, end of occlusion, end of 3 hours reperfusion): without effect on hemodynamics | reduction of the size of the myocardial infarction [1, 6]: 11% | reduction of the size of the no-reflow zone [1, 6]: 23% | Area of necrosis/Area at risk (%) [1, 7]: 50.8 ± 3.9^ % | Area of no-reflow/Area at risk (%) [1, 7]: 30.1 ± 2.3 % | reduction of the size of the myocardial infarction [1, 8]: 22% | reduction of the size of the no-reflow zone [1, 8]: 26% | Area of necrosis/Area at risk (%) [1, 9]: 44.5 ± 2.9^& % | Area of no-reflow/Area at risk (%) [1, 9]: 28.8 ± 2.4 % | AOL plasma level at reperfusion at which positive impact compared to vehicle was observed [2]: > 1 ng per mL of plasma | slope of linear regression, plasma concentration at Cmax (Y) versus bolus dose (X) ([3]; Y=slope×X, FIG. 8A): 1.046 | slope of linear regression, plasma concentration at end of infusion (Y) versus infusion dose (X) ([3]; Y=slope×X, FIG. 8B): 0.5723 | time at which steady state was reached ([3]; all dosage regimens tested): around 3 hours | AOL plasma concentration Valley [3, 10]: ~0.08 ng/mL | AOL plasma concentration Valley [3, 11]: ~0.37 ng/mL | AOL plasma concentration Valley [3, 12]: ~0.72 ng/mL | AOL plasma concentration Valley [3, 13]: ~2.67 ng/mL | Cmax [3, 10]: 0.29 ng/mL | Cmax [3, 11]: 1.04 ng/mL | Cmax [3, 12]: 1.94 ng/mL | Cmax [3, 13]: 4.14 ng/mL | concentration at 12 hours [3, 10]: ~0.1 ng/mL | concentration at 12 hours [3, 11]: ~0.8 ng/mL | concentration at 12 hours [3, 12]: ~1.7 ng/mL | concentration at 12 hours [3, 13]: ~3.5 ng/mL | metabolization of AOL into AOX ([3]; human subjects, FIG. 9A): rapidly metabolized into AOX | trough of AOL plasma concentration after the bolus [4]: abolished the trough

Oc1ccc(-c2cc(=S)ss2)cc1 [AOX, desmethylanethole trithione]
appearance of AOX in plasma after start of AOL administration ([3]; human subjects, FIG. 9A): quickly appeared in the plasma | AOX plasma concentration [5]: < 0.5 ng/mL
